Assay results from patent US20150290200A1, “INTRACELLULAR KINASE INHIBITORS” (Pharmacyclics Inc., priority 2006, published 2015).

Assays:
[1] = biological target: T1, C442A-ITK kinase domain (Homo sapiens, UniProt Q08881, C442A); assay: In vitro kinase assay, C442A point mutant of ITK kinase domain; assay type: biochemical; conditions: Table 8
T1 construct: we created a point mutant of the ITK kinase domain; made in house; host or cells: baculovirus expression system (Invitrogen, pBlueBac)
T1 sequence (Q08881 363-615 C442A limits assumed): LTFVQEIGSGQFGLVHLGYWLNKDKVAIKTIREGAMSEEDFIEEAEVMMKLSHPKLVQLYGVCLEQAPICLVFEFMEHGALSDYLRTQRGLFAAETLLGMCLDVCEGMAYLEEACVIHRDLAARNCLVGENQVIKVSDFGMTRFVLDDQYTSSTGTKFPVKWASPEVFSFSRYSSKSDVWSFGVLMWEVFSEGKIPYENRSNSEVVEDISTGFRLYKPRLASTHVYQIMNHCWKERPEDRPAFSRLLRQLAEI
Description: (§1) In order to confirm the mechanism by which compounds depicted herein interact with the kinase domain of Tec and EGFR kinases, we created a point mutant of the ITK kinase domain, whereby the key amino acid, namely C442 was mutated to alanine. The protein was expressed in a commercial baculovirus expression system using the manufacturer's general protocol (Invitrogen, pBlueBac). Protein was expressed and purified using standard techniques. […] While the activity of WT-ITK was inhibited by compounds depicted in this application, the same compounds had no activity towards the C442A mutant kinase domain.

[2] = biological target: T2, ITK kinase domain (Homo sapiens, UniProt Q08881); assay: In vitro kinase assay (HITHUNTER enzyme fragment complementation), ITK; assay type: biochemical; conditions: Table 8; wild type ITK kinase domain; read-out: IC50 wild-type ITK
T2 construct: N-terminally His-tagged ITK kinase domain (amino acids 352-617); His (N); made in house
T2 sequence (Q08881 352-617): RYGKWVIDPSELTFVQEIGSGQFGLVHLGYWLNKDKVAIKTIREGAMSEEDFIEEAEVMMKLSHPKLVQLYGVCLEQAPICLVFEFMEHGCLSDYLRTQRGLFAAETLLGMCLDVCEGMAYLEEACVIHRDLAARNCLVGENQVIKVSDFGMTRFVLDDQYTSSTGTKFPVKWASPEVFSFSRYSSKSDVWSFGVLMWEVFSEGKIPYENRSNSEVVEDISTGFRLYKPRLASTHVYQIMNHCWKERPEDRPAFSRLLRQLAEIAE
Procedure: Compounds were screened using the HITHUNTER™ enzyme fragment complementation method (Discoverx). Briefly, a recombinantly produced, N-terminally His-tagged ITK kinase domain (amino acids 352-617) was incubated with various concentrations of individual compounds. ATP and substrate were added, and the kinase reaction was allowed to proceed for 2-16 hours. Commercially available detection reagents were added and allowed to react for 2-4 hours. The reaction was evaluated by luminescence. Initial results were confirmed using full-length recombinant ITK protein.
as §1

- IC50 [1]: > 10000 nM
- IC50 [2]: 11.1 nM
SMILES: NC(=O)c1ccc2cc(C(=O)CCN3CCOCC3)ccc2c1 [drawing 259]
